Experiments:
Test in all cases: relative viability (nuclei count vs DMSO), 5 days (fraction); higher = more cells survive
kb NB 142-70 + AZD7762 = compound: C1CSC2=C(C(=O)N1)SC3=C2C=C(C=C3)O [kb NB 142-70] + NC(=O)Nc1cc(-c2cccc(F)c2)sc1C(=O)N[C@H]1CCCNC1 [AZD7762] (partner 0.2 µM)
Method in brief: (§1)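 Five library-drug doses in √10 steps were combined with a fixed anchor-drug dose, or a single drug was given alone, by pin tool to lung cancer cell lines in 1536-well plates the day after seeding. Nuclei were stained and counted after 5 days. Relative viability is the nuclei count in treated wells over that in vehicle wells, taken as the median of duplicate plates.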

[1] = compound: NCC(=O)Nc1ccc(-n2nc(C(F)(F)F)cc2-c2ccc3c(ccc4ccccc43)c2)cc1 + CCNC(=O)c1noc(-c2cc(C(C)C)c(O)cc2O)c1-c1ccc(CN2CCOCC2)cc1 [Luminespib] (partner 0.01 µM)
Method in brief: as §1

kb NB 142-70 + Lapatinib = compound: C1CSC2=C(C(=O)N1)SC3=C2C=C(C=C3)O [kb NB 142-70] + CS(=O)(=O)CCNCc1ccc(-c2ccc3ncnc(Nc4ccc(OCc5cccc(F)c5)c(Cl)c4)c3c2)o1 [Lapatinib] (partner 2 µM)
Method in brief: as §1

[2] = compound: C1CSC2=C(C(=O)N1)SC3=C2C=C(C=C3)O [kb NB 142-70] + CC1(C)CCC(c2ccc(Cl)cc2)=C(CN2CCN(c3ccc(C(=O)NS(=O)(=O)c4ccc(N[C@H](CCN5CCOCC5)CSc5ccccc5)c(S(=O)(=O)C(F)(F)F)c4)cc3)CC2)C1 [Navitoclax] (partner 0.5 µM)
Method in brief: as §1

[3] = compound: C1CSC2=C(C(=O)N1)SC3=C2C=C(C=C3)O [kb NB 142-70] + CS(=O)(=O)N1CCN(Cc2cc3nc(-c4cccc5[nH]ncc45)nc(N4CCOCC4)c3s2)CC1 [Pictilisib] (partner 1 µM)
Method in brief: as §1

Cell Line	relative viability (kb NB 142-70 + AZD7762; first compound 0.1 µM)	relative viability (kb NB 142-70 + AZD7762; first compound 1 µM)	relative viability (kb NB 142-70 + AZD7762; first compound 3.162 µM)	relative viability ([1]; first compound 0.02 µM)	relative viability ([1]; first compound 0.06325 µM)	relative viability ([1]; first compound 0.2 µM)	relative viability ([1]; first compound 0.6325 µM)	relative viability ([1]; first compound 2 µM)	relative viability (kb NB 142-70 + Lapatinib; first compound 0.1 µM)	relative viability (kb NB 142-70 + Lapatinib; first compound 1 µM)	relative viability (kb NB 142-70 + Lapatinib; first compound 3.162 µM)	relative viability ([2]; first compound 0.1 µM)	relative viability ([2]; first compound 1 µM)	relative viability ([2]; first compound 3.162 µM)	relative viability ([3]; first compound 0.1 µM)	relative viability ([3]; first compound 1 µM)	relative viability ([3]; first compound 3.162 µM)
NCI-H2342	0.548	0.49	0.518	0.626	0.875	0.75	0.75	0.688	–	–	–	–	–	–	–	–	–
NCI-H1299	–	–	–	–	–	–	–	–	0.919	1.02	1	1.07	1.13	1.1	0.802	0.889	0.32
NCI-H1650	–	–	–	0.202	0.229	–	0.166	0.199	0.874	0.88	0.69	1.25	1.24	0.89	0.577	0.539	0.613
NCI-H2009	–	–	–	1.1	0.932	1.09	1.03	1.03	0.952	1.03	0.678	1.13	1.22	0.889	0.857	0.814	0.564
SW 900	0.663	0.758	0.879	–	0.187	0.188	0.209	0.169	–	–	–	–	–	–	–	–	–
SK-MES-1	–	–	–	0.828	0.904	0.897	0.842	0.802	0.448	0.503	0.541	1.21	1.27	0.658	0.333	0.325	0.235
NCI-H1648	0.585	0.811	0.933	–	–	–	–	–	–	–	–	–	–	–	–	–	–
NCI-H522	0.959	0.753	0.746	0.97	1.05	1.24	1.19	1.37	–	–	–	–	–	–	–	–	–
HCC-366	0.277	0.572	0.734	–	–	–	–	–	1.06	0.926	0.927	1.03	1.13	0.823	0.13	0.127	0.092
A549	–	–	–	–	–	–	–	–	0.979	0.928	0.428	1.27	1.08	0.142	0.474	0.498	0.114
NCI-H661	–	–	–	0.932	0.907	0.899	0.925	0.906	0.511	0.478	0.492	–	–	–	0.496	0.343	0.351
NCI-H1563	–	–	–	0.557	0.523	0.588	0.526	0.554	0.969	0.889	0.944	–	–	–	0.654	0.674	0.634
ABC-1	0.936	0.927	0.758	0.478	0.813	–	0.372	0.748	0.946	1.22	1.07	–	–	–	0.757	0.879	0.381
LCLC-103H	0.766	0.782	0.894	0.932	0.919	1.03	0.925	0.895	–	–	–	–	–	–	0.631	0.652	0.638
NCI-H441	1.06	1.23	0.863	0.334	0.391	0.347	0.296	0.397	–	–	–	0.683	0.369	0.34	0.497	0.429	0.305

— the supplement of paper PMC10307832
